Data taken from BindingDB's records for doi:10.3109/10799899109064686 (Center For Bio-Pharmaceutical Sciences, 1991).

How the values were obtained:
[1] = molecular target: T1, 5-hydroxytryptamine receptor 3A (Mus musculus, UniProt P23979)
T1 sequence (P23979 whole entry): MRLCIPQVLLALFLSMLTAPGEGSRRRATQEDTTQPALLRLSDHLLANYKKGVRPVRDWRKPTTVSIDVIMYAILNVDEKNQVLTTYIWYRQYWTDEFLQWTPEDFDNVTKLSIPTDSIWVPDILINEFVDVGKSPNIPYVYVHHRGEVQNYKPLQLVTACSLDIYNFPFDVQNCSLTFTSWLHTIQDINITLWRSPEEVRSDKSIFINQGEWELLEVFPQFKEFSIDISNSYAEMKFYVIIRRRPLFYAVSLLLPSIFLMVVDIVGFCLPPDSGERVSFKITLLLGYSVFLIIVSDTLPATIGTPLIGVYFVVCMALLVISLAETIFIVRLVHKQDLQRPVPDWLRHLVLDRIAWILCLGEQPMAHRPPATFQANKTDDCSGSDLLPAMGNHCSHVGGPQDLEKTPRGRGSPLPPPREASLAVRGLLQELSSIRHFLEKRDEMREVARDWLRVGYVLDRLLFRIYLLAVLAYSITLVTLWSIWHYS

[2] = molecular target: 5-hydroxytryptamine receptor 2A (Rattus norvegicus, UniProt P14842)
D(2) dopamine receptor = D(2) dopamine receptor (Rattus norvegicus, UniProt P61169)
[3] = molecular target: T2, 5-hydroxytryptamine receptor 1A (Rattus norvegicus, UniProt P19327)
T2 sequence (P19327 whole entry): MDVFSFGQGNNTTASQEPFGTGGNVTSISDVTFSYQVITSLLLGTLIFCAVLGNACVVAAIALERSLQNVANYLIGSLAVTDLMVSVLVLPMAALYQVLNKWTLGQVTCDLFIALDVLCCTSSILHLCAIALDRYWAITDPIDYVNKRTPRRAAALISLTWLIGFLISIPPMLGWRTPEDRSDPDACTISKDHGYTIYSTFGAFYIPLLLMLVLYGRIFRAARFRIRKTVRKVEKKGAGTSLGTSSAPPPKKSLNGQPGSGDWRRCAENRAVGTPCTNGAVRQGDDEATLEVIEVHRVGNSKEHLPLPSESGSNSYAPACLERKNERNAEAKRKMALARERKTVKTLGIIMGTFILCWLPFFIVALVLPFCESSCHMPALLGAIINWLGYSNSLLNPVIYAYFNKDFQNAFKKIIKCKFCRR

[4] = molecular target: 5-hydroxytryptamine 1D receptor (Bos taurus, UniProt Q8MI13)
[5] = molecular target: Beta-1 adrenergic receptor (Rattus norvegicus, UniProt P18090)
[6] = molecular target: Gamma-aminobutyric acid receptor subunit alpha-1 (Rattus norvegicus, UniProt P62813)
[7] = molecular target: T3, Alpha-1A adrenergic receptor (Rattus norvegicus, UniProt P43140)
T3 sequence (P43140 whole entry): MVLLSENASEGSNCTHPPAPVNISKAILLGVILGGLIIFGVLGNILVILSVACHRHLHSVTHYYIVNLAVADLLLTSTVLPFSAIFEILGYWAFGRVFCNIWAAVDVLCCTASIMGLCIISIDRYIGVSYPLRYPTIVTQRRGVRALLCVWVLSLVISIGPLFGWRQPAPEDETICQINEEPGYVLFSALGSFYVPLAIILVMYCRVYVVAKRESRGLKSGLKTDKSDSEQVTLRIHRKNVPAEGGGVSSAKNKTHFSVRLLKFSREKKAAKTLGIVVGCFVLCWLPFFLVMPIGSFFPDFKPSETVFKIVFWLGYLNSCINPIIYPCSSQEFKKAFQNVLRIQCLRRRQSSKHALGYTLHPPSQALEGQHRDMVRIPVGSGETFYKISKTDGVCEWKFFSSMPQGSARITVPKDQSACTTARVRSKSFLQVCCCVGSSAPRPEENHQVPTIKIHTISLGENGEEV

[8] = molecular target: T4, 5-hydroxytryptamine receptor 2C (Sus scrofa, UniProt G7ZKZ7)
T4 sequence (G7ZKZ7 whole entry): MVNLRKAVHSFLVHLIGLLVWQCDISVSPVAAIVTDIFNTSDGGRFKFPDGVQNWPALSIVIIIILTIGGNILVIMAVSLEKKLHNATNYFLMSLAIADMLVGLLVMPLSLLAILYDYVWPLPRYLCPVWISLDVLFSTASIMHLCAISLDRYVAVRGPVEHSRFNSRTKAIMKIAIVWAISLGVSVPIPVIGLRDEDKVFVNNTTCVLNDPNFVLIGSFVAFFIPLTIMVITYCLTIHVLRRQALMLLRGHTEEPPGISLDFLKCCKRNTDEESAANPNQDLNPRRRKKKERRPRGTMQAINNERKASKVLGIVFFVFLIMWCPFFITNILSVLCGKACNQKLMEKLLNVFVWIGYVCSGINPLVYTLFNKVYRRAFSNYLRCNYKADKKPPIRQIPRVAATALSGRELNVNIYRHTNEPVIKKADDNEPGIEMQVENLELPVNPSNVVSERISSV

Mu-type opioid receptor = Mu-type opioid receptor (Rattus norvegicus, UniProt P33535)
[9] = molecular target: Delta-type opioid receptor (Rattus norvegicus, UniProt P33533)
[10] = molecular target: T5, Muscarinic acetylcholine receptor M1 (Rattus norvegicus, UniProt P08482)
T5 sequence (P08482 whole entry): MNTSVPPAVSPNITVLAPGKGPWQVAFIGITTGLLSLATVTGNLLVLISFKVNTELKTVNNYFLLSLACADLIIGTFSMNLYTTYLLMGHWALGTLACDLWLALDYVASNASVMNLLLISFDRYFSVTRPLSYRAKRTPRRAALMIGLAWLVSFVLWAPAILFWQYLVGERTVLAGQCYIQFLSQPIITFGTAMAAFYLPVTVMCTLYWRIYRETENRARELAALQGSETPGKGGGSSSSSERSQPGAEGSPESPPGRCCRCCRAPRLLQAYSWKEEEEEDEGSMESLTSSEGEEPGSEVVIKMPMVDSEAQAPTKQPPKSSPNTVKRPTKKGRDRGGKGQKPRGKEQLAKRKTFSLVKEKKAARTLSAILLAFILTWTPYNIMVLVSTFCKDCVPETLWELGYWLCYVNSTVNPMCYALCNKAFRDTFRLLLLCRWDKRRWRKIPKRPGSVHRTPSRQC

Beta-1 adrenergic receptor, sequence (P18090 whole entry): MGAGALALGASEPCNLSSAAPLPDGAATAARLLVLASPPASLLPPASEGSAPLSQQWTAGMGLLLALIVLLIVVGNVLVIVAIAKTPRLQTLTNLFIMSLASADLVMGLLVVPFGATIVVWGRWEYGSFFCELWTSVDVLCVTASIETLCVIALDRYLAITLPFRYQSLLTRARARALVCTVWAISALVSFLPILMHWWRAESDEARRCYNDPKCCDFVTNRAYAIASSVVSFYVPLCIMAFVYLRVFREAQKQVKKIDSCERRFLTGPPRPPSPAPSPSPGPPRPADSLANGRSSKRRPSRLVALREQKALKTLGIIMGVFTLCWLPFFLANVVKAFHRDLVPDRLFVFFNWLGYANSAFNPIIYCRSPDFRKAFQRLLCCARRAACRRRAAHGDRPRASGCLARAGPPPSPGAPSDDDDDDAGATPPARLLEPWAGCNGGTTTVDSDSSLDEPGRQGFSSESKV
D(2) dopamine receptor, sequence (P61169 whole entry): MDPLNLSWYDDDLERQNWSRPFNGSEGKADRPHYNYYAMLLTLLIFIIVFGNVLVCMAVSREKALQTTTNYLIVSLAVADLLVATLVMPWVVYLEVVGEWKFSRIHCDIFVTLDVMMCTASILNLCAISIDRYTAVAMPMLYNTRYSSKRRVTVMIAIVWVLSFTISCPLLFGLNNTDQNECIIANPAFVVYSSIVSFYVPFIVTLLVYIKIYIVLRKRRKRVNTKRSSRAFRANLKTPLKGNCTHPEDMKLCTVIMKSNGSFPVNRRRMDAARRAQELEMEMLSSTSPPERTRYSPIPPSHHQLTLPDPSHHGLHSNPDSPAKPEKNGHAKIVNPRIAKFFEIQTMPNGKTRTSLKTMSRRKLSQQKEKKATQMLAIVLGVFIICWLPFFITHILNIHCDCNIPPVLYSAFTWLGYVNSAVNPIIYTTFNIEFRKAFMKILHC
Mu-type opioid receptor, sequence (P33535 whole entry): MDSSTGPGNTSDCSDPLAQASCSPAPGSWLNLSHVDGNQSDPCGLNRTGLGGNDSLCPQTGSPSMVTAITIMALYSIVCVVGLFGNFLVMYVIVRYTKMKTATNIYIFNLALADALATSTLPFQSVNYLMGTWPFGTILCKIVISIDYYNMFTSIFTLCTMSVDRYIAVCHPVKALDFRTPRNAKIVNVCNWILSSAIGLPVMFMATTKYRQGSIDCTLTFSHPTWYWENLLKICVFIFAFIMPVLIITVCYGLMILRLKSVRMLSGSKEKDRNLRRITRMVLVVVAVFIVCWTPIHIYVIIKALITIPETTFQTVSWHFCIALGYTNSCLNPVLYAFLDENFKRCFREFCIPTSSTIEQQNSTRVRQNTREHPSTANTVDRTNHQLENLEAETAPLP
Delta-type opioid receptor, sequence (P33533 whole entry): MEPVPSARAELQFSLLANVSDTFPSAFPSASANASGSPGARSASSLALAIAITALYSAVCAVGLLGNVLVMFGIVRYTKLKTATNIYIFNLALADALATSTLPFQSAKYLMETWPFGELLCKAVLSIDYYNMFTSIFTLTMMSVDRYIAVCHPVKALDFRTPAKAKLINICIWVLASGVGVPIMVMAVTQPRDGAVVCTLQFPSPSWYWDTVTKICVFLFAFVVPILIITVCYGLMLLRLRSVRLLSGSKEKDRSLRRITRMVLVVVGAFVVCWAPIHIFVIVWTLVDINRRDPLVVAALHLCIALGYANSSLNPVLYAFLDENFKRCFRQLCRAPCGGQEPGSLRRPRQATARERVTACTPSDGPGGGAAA
5-hydroxytryptamine receptor 2A, sequence (P14842 whole entry): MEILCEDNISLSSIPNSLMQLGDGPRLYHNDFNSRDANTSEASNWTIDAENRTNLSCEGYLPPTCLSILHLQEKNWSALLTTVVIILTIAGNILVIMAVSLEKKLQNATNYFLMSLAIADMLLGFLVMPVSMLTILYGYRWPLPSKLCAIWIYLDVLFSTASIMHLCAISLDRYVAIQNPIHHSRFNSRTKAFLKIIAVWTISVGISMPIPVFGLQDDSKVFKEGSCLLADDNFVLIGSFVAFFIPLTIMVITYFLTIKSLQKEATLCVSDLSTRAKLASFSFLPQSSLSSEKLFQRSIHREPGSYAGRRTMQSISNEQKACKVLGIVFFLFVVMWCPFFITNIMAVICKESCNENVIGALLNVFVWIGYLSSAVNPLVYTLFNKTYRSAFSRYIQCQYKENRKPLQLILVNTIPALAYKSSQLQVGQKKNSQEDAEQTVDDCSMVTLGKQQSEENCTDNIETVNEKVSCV
Gamma-aminobutyric acid receptor subunit alpha-1, sequence (P62813 whole entry): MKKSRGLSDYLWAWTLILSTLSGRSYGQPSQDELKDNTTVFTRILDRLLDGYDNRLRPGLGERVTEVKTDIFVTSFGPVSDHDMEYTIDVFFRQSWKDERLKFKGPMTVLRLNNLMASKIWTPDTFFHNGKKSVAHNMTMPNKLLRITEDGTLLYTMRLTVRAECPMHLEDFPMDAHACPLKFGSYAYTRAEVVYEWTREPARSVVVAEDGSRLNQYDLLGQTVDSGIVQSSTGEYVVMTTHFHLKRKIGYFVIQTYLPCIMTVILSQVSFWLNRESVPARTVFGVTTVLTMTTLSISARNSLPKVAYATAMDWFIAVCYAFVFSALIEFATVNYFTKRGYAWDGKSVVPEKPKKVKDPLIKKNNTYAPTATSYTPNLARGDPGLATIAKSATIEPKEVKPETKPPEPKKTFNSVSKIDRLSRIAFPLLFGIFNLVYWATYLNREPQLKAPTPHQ
5-hydroxytryptamine 1D receptor, sequence (Q8MI13 whole entry): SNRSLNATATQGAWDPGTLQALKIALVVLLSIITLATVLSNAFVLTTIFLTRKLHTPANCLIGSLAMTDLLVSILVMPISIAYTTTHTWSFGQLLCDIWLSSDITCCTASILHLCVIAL

Ki [1]	Ki [2]	Ki (D(2) dopamine receptor)	Ki [3]	Ki [4]	Ki [5]	Ki [6]	Ki [7]	Ki [8]	Ki (Mu-type opioid receptor)	Ki [9]	Ki [10]	SMILES
> 10 µM	0.4 µM	> 10 µM	> 10 µM	> 10 µM	> 10 µM	> 10 µM	> 10 µM	6.7 µM	0.061 µM	1 µM	3.6 µM	N=C(N)NC(=O)c1nc(Cl)c(N2CCCCCC2)nc1N
2.2 µM	1.4 µM	7.6 µM	1.9 µM	> 10 µM	> 10 µM	> 10 µM	2 µM	> 10 µM	1.1 µM	> 10 µM	2.9 µM	NC(=NCc1ccccc1)NC(=O)c1nc(Cl)c(N)nc1N [NSC_108107]

SMILES	Ki [1]	Ki [2]	Ki (D(2) dopamine receptor)	Ki [3]	Ki [4]	Ki [5]	Ki [6]	Ki [7]	Ki [8]	Ki (Mu-type opioid receptor)	Ki [9]	Ki [10]
N=C(N)NC(=O)c1nc(Cl)c(N)nc1N [3,5-diamino-N-carbamimidoyl-6-chloropyrazine-2-carboxamide]	> 10 µM	> 10 µM	> 10 µM	> 10 µM	> 10 µM	> 10 µM	> 10 µM	> 10 µM	> 10 µM	> 10 µM	> 10 µM	> 10 µM
